Molecular target: T1, Peroxisome proliferator-activated receptor gamma (Homo sapiens, UniProt P37231)
T1 sequence (P37231 whole entry): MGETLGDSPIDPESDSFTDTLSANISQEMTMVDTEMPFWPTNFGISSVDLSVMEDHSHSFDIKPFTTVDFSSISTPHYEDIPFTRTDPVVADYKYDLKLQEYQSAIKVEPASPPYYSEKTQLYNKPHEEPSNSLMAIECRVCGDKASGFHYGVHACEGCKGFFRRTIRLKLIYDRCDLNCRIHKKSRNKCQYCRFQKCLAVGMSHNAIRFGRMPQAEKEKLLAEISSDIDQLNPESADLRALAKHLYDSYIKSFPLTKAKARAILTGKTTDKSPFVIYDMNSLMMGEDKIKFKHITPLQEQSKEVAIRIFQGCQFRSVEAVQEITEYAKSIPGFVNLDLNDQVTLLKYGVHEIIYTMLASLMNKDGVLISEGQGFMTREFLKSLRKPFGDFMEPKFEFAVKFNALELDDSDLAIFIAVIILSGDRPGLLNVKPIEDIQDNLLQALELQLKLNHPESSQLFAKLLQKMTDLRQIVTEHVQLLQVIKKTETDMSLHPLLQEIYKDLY
Assay: Agonist activity at human PPARgamma expressed in african green monkey CV1 cells co-transfected with Gal4 assessed as reporter activity by transient transactivation assay
Type: functional, cell-based, CV-1
Conditions: not given

EC50	SMILES
160 nM	CC(C)OC(Cc1ccc(OCCc2noc(-c3ccccc3C(F)(F)F)n2)cc1)C(=O)O (stereo unspecified)

Molecular target: T2, Peroxisome proliferator-activated receptor delta (Homo sapiens) (UniProt Q03181)
T2 sequence (whole entry): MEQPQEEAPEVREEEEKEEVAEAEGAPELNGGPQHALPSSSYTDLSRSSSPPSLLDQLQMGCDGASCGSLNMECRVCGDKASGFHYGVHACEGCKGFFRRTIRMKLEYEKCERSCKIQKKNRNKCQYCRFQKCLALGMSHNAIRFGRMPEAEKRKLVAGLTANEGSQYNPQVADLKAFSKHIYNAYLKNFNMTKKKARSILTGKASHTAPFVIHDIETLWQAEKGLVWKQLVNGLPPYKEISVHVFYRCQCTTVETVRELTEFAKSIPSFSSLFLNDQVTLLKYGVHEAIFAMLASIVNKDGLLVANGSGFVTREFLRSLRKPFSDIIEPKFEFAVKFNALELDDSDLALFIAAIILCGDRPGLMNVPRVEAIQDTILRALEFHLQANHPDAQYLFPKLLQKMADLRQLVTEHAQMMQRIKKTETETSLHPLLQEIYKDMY
Assay: Agonist activity at human PPARdelta expressed in african green monkey CV1 cells co-transfected with Gal4 assessed as reporter activity by transient transactivation assay
Type: functional, cell-based
Design: concentration or dose not given beside the values
Conditions: CV-1

Activity	SMILES
< 40%	CC(C)OC(Cc1ccc(OCCc2noc(-c3ccc(F)cc3)n2)cc1)C(=O)O (stereo unspecified)
40%	CC(C)OC(Cc1ccc(OCCc2noc(-c3ccc(Cl)cc3)n2)cc1)C(=O)O (stereo unspecified)
< 40%	CC(C)OC(Cc1ccc(OCc2noc(C3CCCCC3)n2)cc1)C(=O)O (stereo unspecified)
< 40%	CC(C)OC(Cc1ccc(OCCc2noc(-c3ccccc3)n2)cc1)C(=O)O (stereo unspecified)
< 40%	CC(C)OC(Cc1ccc(OCCc2noc(-c3cc(C(F)(F)F)cc(C(F)(F)F)c3)n2)cc1)C(=O)O (stereo unspecified)

Reference: ChEMBL document CHEMBL1154456, “CoMFA analysis of dual/multiple PPAR activators” (Eur J Med Chem, 2008)
